The results in this text go back to EP0016371A1, “Urea derivatives, process and intermediates for their preparation, medicaments containing such a urea derivative and its therapeutical use” (F. HOFFMANN-LA ROCHE & CO. Aktiengesellschaft, priority 1979, dated 1980).

Common to all, as to type: in vivo
One experiment deals with Füllinsdorfer Ratten. Kind of experiment: Conflict test in rats (single-lever Skinner box, food pellet reward combined with foot shock). The conditions noted are these: Rattus norvegicus; female rats, by gavage half an hour before the one-hour main test, Wilcoxon test vs. saline pretreatment; read-out: erste signifikant anxiolytisch wirksame Dosis. The method, then: Die Testapparatur ist eine Eintasten-Skinnerbox mit Futterpillengeber.
Während 3 einstündigen Vorversuchen (an drei verschiedenen Tagen) werden hungrige weibliche Füllinsdorfer Ratten (SPF, 190-230 g) darauf trainiert, die Tast des Futterpillengebers zu drücken, um Futterpillen von je 45 mg zu erhalten (jeder Tastendruck wird belohnt); im dritten Vorversuch erreichen die Ratten eine Rate von 150-200 Tastenbetätigungen pro Stunde.
In einem vierten Vorversuch wird jede durch Tastendruck hervorgerufene Pillenbelohnung mit einem kurzen elektrischen Fuss-Schock (1,0 mA) kombiniert. Die Ratten, welche mit dieser Konflikt-Situation konfrontiert sind, betätigen anfangs noch etwa 5-10mal die Drucktaste und hören dann aus Angst gänzlich auf.
In einem fünften Vorversuch können die Ratten die Taste des Futterpillengebers wieder ohne zusätzlichen Fuss-Schock drücken, wobei wiederum eine Rate von 150-200 Tastenbetätigungen pro Stunde erreicht wird.
In einem sechsten Vorversuch wird eine Selektion der Testtiere durchgeführt. Den Testtieren werden eine halbe Stunde vor Beginn dieses Vorversuches peroral 10 mg/kg Chlordiazepoxid verabreicht; jede Pillenbelohnung wird wiederum mit einem Fuss-Schock kombiniert (Konflikt). Nur Ratten, die in diesem Vorversuch eine Rate von 20-50 Tastenbetätigungen erreichen (vgl. die 5-10 Tastenbetätigungen im vierten Vorversuch) werden als geeignete Testtiere für die Prüfung von potentiellen Anxiolytika behalten. Die Eliminationsrate in diesem Vorversuch beträgt 5%.
Im Hauptversuch werden zur Prüfung der potentiellen Anxiolytika pro Substanz und pro Dosis in der Regel 8 Ratten eingesetzt. Eine unbehandelte Kontrollgruppe ist nicht erforderlich, da jedes Tier als seine eigene Kontrolle dient. Die Testsubstanzen, welche in einem Gemisch von destilliertem Wasser (10 ml) und Tween 80 (2 Tropfen) gelöst oder suspendiert sind, werden den Tieren mit Hilfe einer Schlundsonde eine halbe Stunde vor dem einstündigen Hauptversuch verabreicht. […]

Experiment [1] concerns Maus. Kind of experiment: Maximal electroshock test. The conditions noted are these: Mus musculus, maximaler Elektroschock. A general note: Protection in the maximal electroshock model is a classic sign of anticonvulsant action.
Experiment [2] relates to Maus. Description: Rotating rod test. The conditions noted are these: Versuch am Rotierstab, bis zu einer Dosis von 300 mg/kg. From the text:
(§1) Bei den oben genannten Versuchen handelt es sich um allgemein bekannte Standardmethoden zur Bestimmung von sedierender und muskelrelaxierender Wirkung.

Experiment [3] deals with Maus. Description: Chimney test. Particulars: Kamintest, bis zu einer Dosis von 300 mg/kg.
Description: as §1

The subject of experiment [4] is Maus. Description: Antipentetrazole test. Particulars: Antipentetrazoltest, bis zu einer Dosis von 300 mg/kg.
Description: as §1

Experiment [5] concerns Maus. Description: 3-Mercaptopropionic acid test. Particulars: Mus musculus, 3-Mercaptopropionsäure-Test.
Description: as §1

`CN1CC(=O)N=C1NC(=O)Nc1cccs1` [1-(1-Methyl-4-oxo-2-imidazolin-2-yl)-3-(2-thienyl)harnstoff]: in the experiment on Füllinsdorfer Ratten, the minimal effective dose is 30 mg/kg.
Turning to `CN1CC(=O)N=C1NC(=O)Nc1ccsc1` [1-(1-Methyl-4-oxo-2-imidazolin-2-yl)-3-(3-thienyl)harnstoff], the minimal effective dose with Füllinsdorfer Ratten is 10 mg/kg.
Usually ED50 stands for the dose at which the effect has come halfway, by size or by number of responders. A high value points to a need for a large dose. Regarding `CN1CC(=O)N=C1NC(=O)Nc1csc(Cl)c1` [1-(5-Chlor-3-thienyl)-3-(1-methyl-4-oxo-2-imidazolin-2-yl)harnstoff], in the experiment on Füllinsdorfer Ratten, the minimal effective dose stood at 3 mg/kg. Moreover, the values for the ED50 in the experiment with Maus [1] and with Maus [5] were > 100 mg/kg and 76 mg/kg, respectively. Moreover, the Aktivität entry in the experiment with Maus [2], in the experiment with Maus [3] and in the experiment with Maus [4] was “keinerlei Aktivität” in each case.
